The source of these data is US11046945B2, “Labeled glutaminase proteins, isolated glutaminase protein mutants, methods of use, and kit” (CORNELL UNIVERSITY, priority 2013, dated 2021).

The structures appear in SMILES notation. Where a chain is given by its changes, count along the chain named.

The target in one test is T1, 488-GAC (WT) (Mus musculus, UniProt D3Z7P3).
T1 construct: plasmid (residues 72-603 for GAC, 72-674 for KGA); His-tag with thrombin cleavage site (N, cleaved yes); made in house; host or cells: pET23a vector
T1 sequence (D3Z7P3 72-603 isoform D3Z7P3-2): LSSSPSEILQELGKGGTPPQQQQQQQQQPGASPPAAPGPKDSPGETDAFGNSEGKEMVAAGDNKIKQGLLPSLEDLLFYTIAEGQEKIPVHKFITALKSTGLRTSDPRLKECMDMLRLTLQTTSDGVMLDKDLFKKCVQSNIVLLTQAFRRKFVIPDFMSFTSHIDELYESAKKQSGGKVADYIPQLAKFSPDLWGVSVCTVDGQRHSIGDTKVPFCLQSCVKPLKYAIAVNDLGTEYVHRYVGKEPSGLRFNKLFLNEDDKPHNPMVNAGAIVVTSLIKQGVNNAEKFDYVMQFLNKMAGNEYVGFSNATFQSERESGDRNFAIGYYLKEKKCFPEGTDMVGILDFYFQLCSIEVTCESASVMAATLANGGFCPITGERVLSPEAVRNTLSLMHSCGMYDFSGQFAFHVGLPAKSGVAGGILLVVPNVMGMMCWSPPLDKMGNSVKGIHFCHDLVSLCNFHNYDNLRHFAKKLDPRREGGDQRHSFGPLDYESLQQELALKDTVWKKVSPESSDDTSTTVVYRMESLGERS
Description: Real-time binding read-out by 488-GAC fluorescence quenching. The note with it: for quenching of 488-GAC fluorescence (direct binding): 10 nM 488-GAC, no QSY 9-GAC. As to the method: (§1) Real-time fluorescence monitoring of 488-GAC fluorescence and NADH fluorescence was performed on a Varian Carry Eclipse Fluorometer, whereas small molecule inhibition and binding titrations were performed in a 96-well format using Grenier non-binding 96-well plates in a Tecan Saphire absorbance and fluorescence plate reader. Samples for monitoring real time binding of 968 to 488-GAC were prepared by adding 10 […] (490 nm excitation/520 nm emission). Similarly, this method was replicated for monitoring real time binding of 968 to KGA and mutant forms of GAC, namely 488-D391K-GAC and 488-K316E-D391K-R459E-GAC. Titrations of 968 with mutant forms of GAC were done in triplicate and quantified by the following equation
[formula] where F is the normalized fluorescence at given drug concentration (i.e., F/F0), and Fsat is the normalized fluorescence at saturating concentrations of drug, as shown in FIG. 7A. […] 10 nM WT GAC was added and allowed to equilibrate 2 minutes before beginning to monitor fluorescence of 488-GAC (490 nm excitation, 520 nm emission) and NADH fluorescence (340 nm excitation, 490 nm emission). […] The activity of GAC was indirectly measured by the NADH produced by the added glutamate dehydrogenase, which converts the product of glutaminase activity, glutamate, to α-ketoglutarate and ammonia through reducing NAD^+ to NADH. Because solutions containing glutamine undergo non-enzymatic degradation to glutamate, samples were further analyzed by subtracting the evolved NADH produced by glutaminase in the presence of 968, BPTES, or the equivalent volume of DMSO as a control, by the evolved NADH produced in the absence of glutaminase under identical experimental conditions. Evolved NADH was quantified using a standard curve of freshly prepared NADH (Sigma) in 50 mM Tris-Acetate pH=8.5, 0.1 mM EDTA.
Procedures for the described real-time binding and inhibition assays were adapted for 96-well microtiter format with minor alterations. […] Quenching was quantified by subtracting the normalized fluorescence by one (i.e., 1-F/F0). […]

Another test deals with T2, 488-D391K-GAC (Mus musculus, UniProt D3Z7P3, D391K).
T2 construct: plasmid (residues 72-603 for GAC, 72-674 for KGA); His-tag with thrombin cleavage site (N, cleaved yes); made in house; host or cells: pET23a vector
T2 sequence (D3Z7P3 72-603 isoform D3Z7P3-2 D391K): T1 sequence (D3Z7P3 72-603 isoform D3Z7P3-2) with D320K
Description: Real-time binding read-out by fluorescence quenching, dimer mutant. Particulars: 20 nM 488-labeled protein, 968 titration. As to the method: as §1
[formula] where F is the normalized fluorescence at given drug concentration (i.e., F/F0), and Fsat is the normalized fluorescence at saturating concentrations of drug, as shown in FIG. 7A. […] 10 nM WT GAC was added and allowed to equilibrate 2 minutes before beginning to monitor fluorescence of 488-GAC (490 nm excitation, 520 nm emission) and NADH fluorescence (340 nm excitation, 490 nm emission). […] The activity of GAC was indirectly measured by the NADH produced by the added glutamate dehydrogenase, which converts the product of glutaminase activity, glutamate, to α-ketoglutarate and ammonia through reducing NAD^+ to NADH. […]

In another test the test system is Dbl-transformed MEFs. Particulars: adapted from Wang et al. 2010; cited from earlier work.

Take `O=C(Cc1ccccc1)Nc1nnc(CCSCCc2nnc(NC(=O)Cc3ccccc3)s2)s1` [BPTES]: the “quenching of 488-GAC fluorescence (direct binding)” value at 488-GAC (WT) is recorded as “without affecting the fluorescence emission”.
In the case of `CN(C)c1ccc(C2Nc3ccc4ccccc4c3C3=C2C(=O)CC(C)(C)C3)cc1Br` (centres unmarked) [compound 968], the “quenching of 488-GAC fluorescence (direct binding)” value on 488-GAC (WT) is on record as “concentration dependent quenching”. Also, the “binding to 488-labeled GAC (WT)” value on 488-GAC (WT) (20 nM 488-labeled protein, 968 titration) is listed as “capable of binding”. Also, on 488-D391K-GAC, the “binding to dimeric GAC (D391K) mutant” value is “capable of binding”. In the test on Dbl-transformed MEFs, the “inhibition of the ability of Dbl-transformed MEFs to form foci” value is on record as “dose dependent”.
